What is called Kd is the constant that tells how readily two partners part at equilibrium. Low readings indicate tighter binding, high ones weaker binding. One may read the IC50 as the concentration needed to halve the response being measured.

This is an account of results in patent US20050187389A1, “Pyrrolopyrimidine derivatives and analogs and their use in the treatment and prevention of diseases” (Ambit Biosciences Corporation, priority 2004, published 2005).

Each structure is given as a SMILES string. Some results are limits rather than exact numbers.

The target in one experiment is T1, ABL1 (Homo sapiens, UniProt P00519).
T1 construct: made in house
T1 sequence (P00519 242-493 limits assumed): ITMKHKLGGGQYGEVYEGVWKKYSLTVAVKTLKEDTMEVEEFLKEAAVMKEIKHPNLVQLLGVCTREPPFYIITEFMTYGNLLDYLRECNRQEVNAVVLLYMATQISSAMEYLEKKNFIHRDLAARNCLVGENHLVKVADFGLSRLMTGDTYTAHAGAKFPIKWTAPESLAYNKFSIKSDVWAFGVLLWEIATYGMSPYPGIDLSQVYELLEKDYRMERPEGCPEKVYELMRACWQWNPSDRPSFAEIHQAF
Briefly: ABL1 (DKIN) phage-display competitive binding assay. The text has this:
(§1) Methods for measuring binding affinities for interactions between small molecules and kinases including FLT3, c-KIT, ABL(T334I) [a.k.a. ABL(T315I)], VEGFR-2 (a.k.a. KDR), and EGFR are described in detail in U.S. application Ser. No. 10/873,835, which is incorporated by reference herein in its entirety. The components of the assays include human kinases expressed as fusions to T7 bacteriophage particles and immobilized ligands that bind to the ATP site of the kinases. […] If the test compound binds the kinase it competes with the immobilized ligand and prevents binding to the solid support. […] The results are read out by quantitating the amount of fusion protein bound to the solid support, which is accomplished by either traditional phage plaque assays or by quantitative PCR (qPCR) using the phage genome as a template. […] The concentration of test molecule that reduces the number of phage bound to the solid support by 50% is equal to the Kd for the interaction between the kinase and the test molecule. Typically, data are collected for twelve concentrations of test compound and, the resultant binding curve is fit to a non-cooperative binding isotherm to calculate Kd.
(§2) Described in the exemplary assays below is data from binding with varying kinases. […] The term “ND” represents non-determined values.

Another experiment concerns the target T2, VEGFR-2 (Homo sapiens, UniProt P35968).
T2 construct: made in house
Description: VEGFR-2 phage-display competitive binding assay.
Text: as §1, §2

The target of another experiment is T3, PDGFR-β (Homo sapiens, UniProt P09619).
T3 construct: Kd for PDGFR-β (DKIN); made in house
T3 sequence (P09619 600-962 limits assumed): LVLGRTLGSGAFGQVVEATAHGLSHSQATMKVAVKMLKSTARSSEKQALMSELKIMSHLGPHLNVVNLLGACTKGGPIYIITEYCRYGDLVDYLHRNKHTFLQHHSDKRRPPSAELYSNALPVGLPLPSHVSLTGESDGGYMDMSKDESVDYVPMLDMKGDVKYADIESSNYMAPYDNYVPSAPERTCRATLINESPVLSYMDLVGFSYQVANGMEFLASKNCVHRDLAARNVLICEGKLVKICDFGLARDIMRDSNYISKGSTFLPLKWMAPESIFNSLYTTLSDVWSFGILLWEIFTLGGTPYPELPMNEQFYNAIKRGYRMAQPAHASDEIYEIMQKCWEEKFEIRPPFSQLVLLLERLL
Briefly: PDGFR-β (DKIN) phage-display competitive binding assay.
Text: as §1, §2
Kd values for the interactions between PDGFR-β and candidate small molecule ligands were measured by a phage-display-based competitive binding assay that is described in detail in U.S. Ser. No. 10/406,797 filed 2 Apr. 2003 and incorporated herein by reference. Briefly, T7 phage displaying human PDGFR-β were incubated with an affinity matrix coated with known PDGFR-β inhibitor in the presence of various concentrations of the soluble competitor molecules. […] The Kd for the interaction between the soluble competitor molecule and PDGFR-β is equal to the concentration of soluble competitor molecule that causes a 50% reduction in the number of phage recovered in the eluate compared to a control sample lacking soluble competitor. Since this assay is generic, and any molecule can be used as a soluble competitor, we have determined Kd values for the interaction between PDGFR-β and several small molecules, including those shown below.

The target in a further experiment is T4, FLT3 (Homo sapiens, UniProt P36888).
T4 construct: made in house
T4 sequence (P36888 610-943 limits assumed): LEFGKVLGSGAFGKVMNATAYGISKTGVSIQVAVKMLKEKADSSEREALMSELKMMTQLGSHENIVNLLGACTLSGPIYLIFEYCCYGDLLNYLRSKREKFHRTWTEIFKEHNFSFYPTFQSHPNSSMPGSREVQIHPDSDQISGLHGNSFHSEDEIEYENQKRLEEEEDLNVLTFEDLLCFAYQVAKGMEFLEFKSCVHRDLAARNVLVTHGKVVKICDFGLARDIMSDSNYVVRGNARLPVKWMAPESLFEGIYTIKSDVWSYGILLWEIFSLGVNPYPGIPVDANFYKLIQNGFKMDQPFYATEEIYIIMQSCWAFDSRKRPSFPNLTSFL
Description: FLT3 (DKIN) phage-display competitive binding assay.
Text: as §1, §2

The subject of experiment [1] is MV4,11 cells. Briefly: (MV 4,11) Cell Proliferation Assay with 0.5% Serum "CS0001". It counts as cell-based. The following applies: Homo sapiens. As for the experimental part:
(§3) The ability of FLT3 kinase inhibitors to inhibit cellular proliferation was also examined. MV4:11 was a cell line derived from a patient with acute myelogenous leukemia. It expressed a mutant FLT3 protein that was constitutively active. […] Inhibition of FLT3 kinase activity prevented proliferation of these cells, and thus the MV4:11 cell line can be used a model for cellular activity of small molecule inhibitors of FLT3.
(§4) FLT3 Assay using MV4,11 Cells
(§5) MV4,11 cells were grown in an incubator @ 37° C. in 5% CO2 in Medium 2 (RPMI, 10% FBS, 4 mM glutamine, Penn/Strep). The cells were counted daily and the cell density was kept between 1e5 and 8e5 cells/ml.
Day One: Enough cells were harvested for experiments to be conducted in 50 ml conical tubes. The harvested cells were spun at 500 g for 5 min at 4° C., the supernatant was then aspirated and the cells were resuspended in the starting volume of 1× PBS. The cells were again spun at 500 g for 5 min at 4° C. and the supernatant again aspirated. […]
(§6) Day Two: The cells were counted and enough medium 3 was added to decrease density to 2e5 cells/ml. 50 ul (10,000 cells) was aliquoted into each well of a 96 well optical plate using multichannel pipetman. […]

Experiment [2] relates to MV4,11 cells. Briefly: FLT-3 cell assay, (MV 4,11) cell proliferation assay with 10% serum "CS0005". It counts as cell-based, human. As for the experimental part: as §3, §4, §5
Day One: Enough cells were harvested for experiments to be conducted in 50 ml conical tubes. The harvested cells were spun at 500 g for 5 min at 4° C., the supernatant was then aspirated and the cells were resuspended in the starting volume of 1× PBS. The cells were again spun at 500 g for 5 min at 4° C. and the supernatant again aspirated. The cells were then resuspended in medium 3 (DMEM w/glut, 10% FBS, Penn/Strep) to a density of 4e^5 cells/ml and incubated @ 37° C. in 5% CO2 O/N.
as §6

T2 sequence (P35968 20-1356): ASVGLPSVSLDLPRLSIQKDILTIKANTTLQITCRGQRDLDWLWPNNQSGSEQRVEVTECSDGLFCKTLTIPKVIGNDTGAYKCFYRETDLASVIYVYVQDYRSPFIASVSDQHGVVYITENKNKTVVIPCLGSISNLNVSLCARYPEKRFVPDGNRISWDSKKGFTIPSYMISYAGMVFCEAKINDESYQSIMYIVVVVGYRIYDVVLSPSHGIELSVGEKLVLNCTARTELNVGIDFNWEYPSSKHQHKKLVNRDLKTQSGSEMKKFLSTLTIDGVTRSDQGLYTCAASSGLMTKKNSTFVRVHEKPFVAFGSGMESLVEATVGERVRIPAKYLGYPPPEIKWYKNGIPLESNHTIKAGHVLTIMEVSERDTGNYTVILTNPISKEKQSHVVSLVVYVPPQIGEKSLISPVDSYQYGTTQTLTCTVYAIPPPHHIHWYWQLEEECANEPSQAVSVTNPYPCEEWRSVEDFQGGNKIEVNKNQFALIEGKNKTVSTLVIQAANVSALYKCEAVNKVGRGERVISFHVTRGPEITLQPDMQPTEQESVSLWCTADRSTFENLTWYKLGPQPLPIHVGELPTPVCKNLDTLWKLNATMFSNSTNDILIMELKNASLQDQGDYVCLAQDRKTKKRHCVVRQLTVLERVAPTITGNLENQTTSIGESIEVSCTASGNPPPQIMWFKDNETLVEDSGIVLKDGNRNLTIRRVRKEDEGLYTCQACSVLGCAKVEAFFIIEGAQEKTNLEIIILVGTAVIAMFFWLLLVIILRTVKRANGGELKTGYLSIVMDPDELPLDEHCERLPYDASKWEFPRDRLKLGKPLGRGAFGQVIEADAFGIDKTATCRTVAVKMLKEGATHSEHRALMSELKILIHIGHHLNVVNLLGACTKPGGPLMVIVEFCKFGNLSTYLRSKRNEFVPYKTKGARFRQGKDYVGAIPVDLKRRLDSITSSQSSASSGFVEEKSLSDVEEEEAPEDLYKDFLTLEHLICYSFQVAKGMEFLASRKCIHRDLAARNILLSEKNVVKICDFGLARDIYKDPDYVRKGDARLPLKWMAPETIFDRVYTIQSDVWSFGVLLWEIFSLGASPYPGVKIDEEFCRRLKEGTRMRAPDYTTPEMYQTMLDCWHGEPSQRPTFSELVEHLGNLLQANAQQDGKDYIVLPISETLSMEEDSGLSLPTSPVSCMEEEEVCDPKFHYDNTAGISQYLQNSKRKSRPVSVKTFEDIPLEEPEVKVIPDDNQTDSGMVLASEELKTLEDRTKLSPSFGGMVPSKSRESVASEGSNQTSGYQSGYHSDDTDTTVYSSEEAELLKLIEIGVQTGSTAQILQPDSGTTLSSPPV

`COc1ccc(-c2cc3c(N[C@@H](C)c4ccccc4)ncnc3n2C(C)C)cc1` [Compound D10] gave a Kd at ABL1 of 1000 to 10000 nM.

As to `CC(Nc1ncnc2oc(-c3ccccc3)c(-c3ccccc3)c12)c1ccccc1` (stereo not shown) [Compound H3], on VEGFR-2, the Kd is over 10 µM.

In turn, `COc1ccc(-c2cc3c(NCc4cccc(C)c4)ncnc3[nH]2)cc1` [Compound I4] had a Kd on PDGFR-β of 100 to 1000 nM.

At PDGFR-β, `COC(=O)C(Nc1ncnc2[nH]c(-c3ccc(OC)cc3)cc12)c1ccccc1` (stereo not shown) [Compound I7] had a Kd of 100 to 1000 nM.

In the case of `COc1ccc(-c2cc3c(NCCc4ccccc4)ncnc3[nH]2)cc1` [Compound I8], the figures for the Kd on PDGFR-β and at ABL1 were 1000 to 10000 nM and 100 to 1000 nM, respectively.

`C[C@H](Nc1ncnc2[nH]c(-c3ccc(O)cc3)cc12)c1ccccc1` [Compound I9] showed a Kd on ABL1 of 1000 to 10000 nM.

`COc1cccc(-c2cc3c(N[C@H](C)c4ccccc4)ncnc3[nH]2)c1` [Compound I10] yielded an equilibrium dissociation constant (Kd) on PDGFR-β of 100 to 1000 nM.

Compound `COc1cccc(-c2cc3c(NCc4cccc(C)c4)ncnc3[nH]2)c1` [Compound I12] had a Kd on FLT3 of over 10 µM.

The compound `COc1ccc(-c2cc3c(N[C@H](C)c4ccccc4)nc(N[C@@H](C)c4ccccc4)nc3[nH]2)cc1` [Compound M22] registered a Kd on PDGFR-β of 100 to 1000 nM.

On to `C[C@@H](Nc1ncnc2c1cc(-c1ccc(O)cc1)n2C)c1ccccc1` [Compound Q2], for which the Kd on PDGFR-β was 100 to 1000 nM.

As for `Cn1c(-c2ccc(O)cc2)cc2c(Nc3ccccc3Cl)ncnc21` [Compound Q3], on PDGFR-β, the Kd is 100 to 1000 nM.

The compound `CCc1ccccc1Nc1ncnc2c1cc(-c1ccc(O)cc1)n2C` [Compound Q4] yielded a Kd on PDGFR-β of 100 to 1000 nM.

In the case of `COc1ccc(-c2cc3c(Nc4cccc(O)c4)ncnc3[nH]2)cc1` [Compound S6], the Kd on PDGFR-β is over 10000 nM.

For `COc1ccc(-c2cc3c(Nc4ccc(F)c(Cl)c4)ncnc3[nH]2)cc1` [Compound S7], the Kd on PDGFR-β was over 10000 nM.

Compound `COc1ccc(-c2cc3c(Nc4ccc(F)cc4)ncnc3[nH]2)cc1` [Compound S9] had a Kd at PDGFR-β of 100 to 1000 nM.

Regarding `COc1ccc(-c2cc3c(Nc4cccc(C)c4)ncnc3[nH]2)cc1` [Compound S10], the IC50 with MV4,11 cells [1] is under 100 nM. In the experiment with MV4,11 cells [2], the “activity in the FLT-3 cell assay, (MV 4,11) cell proliferation assay with 10% serum, "CS0005"” value is listed as “++ (a Kd of 1,000 nM to 10,000 nM)”. Moreover, the Kd at PDGFR-β fell in the range of 100 to 1000 nM.

The compound `COC(=O)c1cccc(Nc2ncnc3[nH]c(-c4cccc(OC)c4)cc23)c1` [Compound S15] displayed a Kd on PDGFR-β of 1000 to 10000 nM.

`COc1cccc(-c2cc3c(Nc4cccc(O)c4)ncnc3[nH]2)c1` [Compound S16]: the Kd at FLT3 fell in the range of 0.1 to 1 µM; on PDGFR-β, 1000 to 10000 nM; at ABL1, 100 to 1000 nM.

For the compound `Cc1cc(C)cc(Nc2ncnc3[nH]c(-c4ccc(Br)cc4)cc23)c1` [Compound S39], in the experiment on MV4,11 cells [1], the IC50 was in the range of 100 to 1000 nM. The same compound displayed a Kd on FLT3 of over 10 µM.
